Measured values reported in patent US5279956A, “Activated protein C polypeptides and anti-peptide antibodies, diagnostic methods and systems for inhibiting activated protein C” (The Scripps Research Institute, priority 1991, dated 1994).
No end group written: not given here.

target: T1, APC (Homo sapiens, UniProt P04070); assay: APC anticoagulant activity, APTT and Xa-1-stage coagulation assays (mean or both); assay type: biochemical; conditions: 500 μM peptide; mean of APTT and Xa-1-stage assays; 0 = no observable effect ± 10%
T1 construct: begins at amino acid residue position 158 and ends at 419; The light chain is 155 amino acid residues in length; tissue Factor IX concentrate from Immuno AG, Vienna; thrombin from Enzyme Research Laboratories
T1 sequence (P04070 212-461): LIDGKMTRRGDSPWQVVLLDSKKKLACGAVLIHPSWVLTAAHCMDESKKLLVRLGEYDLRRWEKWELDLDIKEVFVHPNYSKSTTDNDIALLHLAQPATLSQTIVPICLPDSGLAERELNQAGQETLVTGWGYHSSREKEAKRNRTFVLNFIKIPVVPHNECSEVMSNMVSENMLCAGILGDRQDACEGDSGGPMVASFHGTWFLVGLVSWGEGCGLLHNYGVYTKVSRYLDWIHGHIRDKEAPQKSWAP
T1 sequence (P04070 43-197): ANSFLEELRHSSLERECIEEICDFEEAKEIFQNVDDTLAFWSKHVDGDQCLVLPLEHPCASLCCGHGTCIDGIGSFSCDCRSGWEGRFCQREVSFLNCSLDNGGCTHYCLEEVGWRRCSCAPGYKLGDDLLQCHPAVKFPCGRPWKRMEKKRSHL
Method: (§1) The effect of the synthetic peptides on APC anticoagulant activity were determined using the APTT assay in the presence of either normal citrate anticoagulated plasma (NHP) or protein S depleted plasma (PSDP). The assays were performed essentially as described. See Marlar et al., Blood, 59:1067-1072 […]; Suzuki et al., J. Biol. Chem., 258:163-168 (1983); Gruber et al., Blood, 73:639-642 (1989); Ohlin et al., Biochem., 29:644-651 (1990). NHP was purchased from George King Bio-Medical, Inc. (Overland Park, Kans.). PSDP was prepared from a normal human citrate-anticoagulated plasma pool from ten healthy donors. Protein S was immunodepleted from the NHP by immunoaffinity chromatography of NHP over an anti-protein S antibody column to form PSDP. The anti-protein S antibody column was prepared by coupling 100 mg of a monoclonal, high-affinity, calcium-independent anti-PS antibody, designated S7, to 30 ml of CNBr-activated Sepharose 4B (Pharmacia) as described in Example 2c1).
For the APTT assay, APC was prepared as described in Example 2c2). […] The concentration of the APC used in the assay was initially optimized with respect to the sensitivity of the assay towards APC-induced prolongation of clotting time compared to clotting time without APC.
(§2) Once the optimal concentration of APC was determined, peptides from Table 2 were then separately admixed for a final concentration of 500 μM with 10 nM APC in 100 μl of TBS-BSA at pH 7.4 to form peptide-APC admixtures. The resulting admixtures were maintained for seven minutes at 37° C. Separate aliquots of peptides maintained under the same conditions in the absence of APC served as controls for the inhibitory effect of synthetic peptides on APC anticoagulant activity. After the maintenance period, 100 μl of NHP and 100 μl APTT-reagent Thrombosil (Ortho Diagnostics, Raritan, N.J.) were admixed into each peptide admixture and maintained for 200 seconds at 37° C. to form a pre-coagulation admixture. In some experiments, PSDP was used in the place of NHP to determine the effect of Protein S on the assay system. Coagulation was then initiated by the admixture of 100 μl of 30 mM CaCl2 in TBS prewarmed to 37° C. to each of the pre-coagulation admixtures. The time for clot formation was measured by an Electra 700 Automatic Coagulation Timer (Medical Laboratory Automation, Inc., Mount Vernon, N.Y.). Each peptide's effect was determined in duplicate.
The synthetic peptides listed in Table 4 are presented in the same order as listed in Table 2, i.e., are reproduced from Table 2. […] For peptides at a concentration of 500 μM that inhibited at least 50% of APC anticoagulant activity, analysis of dose-response was subsequently conducted. The column in Table 4 labeled "Inhibition of APC" represents the inhibition of APC anticoagulant activity measured with 500 μM peptide.
For testing the inhibition of the synthetic peptides on APC activity described above, Xa-1-stage coagulation assays were also performed as described. See Seegers et al., Thrombosis Res., 13:233-243 (1978); Marlar et al., supra; and Walker et al., J. Biol. Chem. 265:1484-1489 (1990).

| Substance | inhibition at 500 µM [%] | Inhibition of APC (%) |
| --- | --- | --- |
| AGILGDRQDA-NH2 [peptide-(346-355), AGILGDRQDA] | 0 | – |
| DESKKLLVRLGEYDL [peptide-(214-230)] | – | 0 |
| DRQDASEGDSGGPMV-NH2 [peptide-(351-365), DRQDA -SEGDSGGPMV] | 0 | – |
| DTEDQEDQVDPRLID-NH2 [peptide-(158-172), DTEDQEDQVDPRLID] | 0 | – |
| EVMSNMVSENMLSAG-NH2 [peptide-(333-347), EVMSNMVSENML -SAG] | 0 | – |
| GHIRDKEAPQKSWAP-NH2 [peptide-(405-419), GHIRDKEAPQKSWAP] | 0 | – |
| GTWFLVLVSWGEGC [peptide-(370-384)] | – | 0 |
| HPSWVLTAAHSMDES-NH2 [peptide-(202-216), HPSWVLTAAH -SMDES] | 0 | – |
| HSSREKEAKRNRTFV-NH2 [peptide-(303-317), HSSREKEAKRNRTFV] | 0 | – |
| LDSKKKLASGAVLIH-NH2 [peptide-(188-202), LDSKKKLA -SGAVLIH] | 0 | – |
| LIDGKMTRRGDSPWQ-NH2 [peptide-(170-184), LIDGKMTRRGDSPWQ] | 0 | – |
| LPDSGLAERELNQAG-NH2 [peptide-(278-292), LPDSGLAERELNQAG] | 0 | – |
| PATLSQTIVPIGLPD-NH2 [peptide-(266-280) SEQ ID NO 8, PATLSQTIVPI -- GLPD] | 0 | – |
| QDACEGDSGGPMVA-NH2 [peptide-(353-366), QDACEGDSGGPMVA] | 0 | – |
| QETLVTGWGYHSSRE-NH2 [peptide-(293-307), QETLVTGWGYHSSRE] | 0 | – |
| RRWEKWELDLDIKEV-NH2 [peptide-(229-243), RRWEKWELDLDIKEV] | 0 | – |
| SKKLLVRLGEYDLRR-NH2 [peptide-(216-230), SKKLLVRLGEYDLRR] | 0 | – |
| VLNFIKIPVVPHNEC-NH2 [peptide-(317-331), VLNFIKIPVVPHNEC] | 50 | – |
| VLTAAHCMDESKKL-NH2 [peptide-(206-219), VLTAAHCMDESKKL] | 0 | – |
| VSRYLDWIHGHIRDK-NH2 [peptide-(396-410), VSRYLDWIHGHIRDK] | 95 | – |

The next lines start with the values.

| inhibition at 500 µM [%] | Inhibition of APC (%) | Substance |
| --- | --- | --- |
| 20 | – | DIKEVFVHPNYSKST-NH2 [(239-253), DIKEVFVHPNYSKST] |
| 0 | – | ELDLDIKEVFVHPNY-NH2 [peptide-(235-249), ELDLDIKEVFVHPNY] |
| 0 | – | GEYDLRRWEKWELDL-NH2 [peptide-(224-238), GEYDLRRWEKWELDL] |
| 0 | – | HIWDLYRSVKTYVGY-NH2 [peptide-(404-390), HIWDLYRSVKTYVGY] |
| 0 | – | IVPISLPDSGLAERE-NH2 [peptide-(273-287), IVPI -SLPDSGLAERE] |
| 0 | – | LLHLAQPATLSQTIV-NH2 [peptide-(260-274), LLHLAQPATLSQTIV] |
| 0 | – | MSNMVSENMLCAGI-NH2 [peptide-(335-348), MSNMVSENMLCAGI] |
| 0 | – | PATLSQTIVPICLP-NH2 [peptide-(266-279), PATLSQTIVPICLP] |
| 0 | – | PATLSQTIVPISLPD-NH2 [peptide-(266-280) SEQ ID NO 7, PATLSQTIVPI -SLPD] |
| – | 0 | SKSTTDNDIALLHLA [peptide-(250-263)] |
| 25 | – | TRRGDSPWQVVLLDS-NH2 [(176-190), TRRGDSPWQVVLLDS] |

same assay, conditions: final peptide concentration at which 50% inhibition of APC activity was observed

| IC50 [µM] | Substance |
| --- | --- |
| 500 | VLNFIKIPVVPHNEC-NH2 [peptide-(317-331), VLNFIKIPVVPHNEC] |
| 70 | VSRYLDWIHGHIRDK-NH2 [peptide-(396-410), VSRYLDWIHGHIRDK] |

same assay, conditions: final peptide concentration at which 90% inhibition of APC activity was observed; read-out: IC90

| IC90 [µM] | Substance |
| --- | --- |
| 300 | VSRYLDWIHGHIRDK-NH2 [peptide-(396-410), VSRYLDWIHGHIRDK] |

target: T1, APC; assay: Activated partial thromboplastin time (APTT) coagulation assay of APC anticoagulant activity; assay type: biochemical; conditions: APTT assay in the presence of APC
Method: as §1, with “2c1). Residual total protein S content in the resultant PSDP was less than 0.1% protein S as determined by quantitative immunoblotting, by solid-phase ELISA for total protein S and by electroimmunoassay.” for “2c1).”
For the APTT assay, APC was prepared as described in Example 2c2). The specific anticoagulant activity of APC was determined to be 250 Units/mg. The concentration of the APC used in the assay was initially optimized with respect to the sensitivity of the assay towards APC-induced prolongation of clotting time compared to clotting time without APC.
as §2
Additional assays were performed to compare the specificity of the inhibitory effect of peptide-(390-404) on APC anticoagulant activity. Both APTT and Xa-1-stage assays were performed with peptide-(390-404) and with the same peptide synthesized in the reverse order, peptide-(404-390), at concentrations of the peptides ranging from 0 μM to 40 μM. In APTT assays performed as described above in the presence of NHP, APC was used at a concentration of 2.5 nM. For APTT assays in the presence of PSDP, APC was used at a concentration of 5 nM. […]
Once the optimal concentration of APC was determined, anti-(390-404) was separately admixed ranging in concentration from 0.0 to 240 nM with APC in 200 μl of TBS-BSA and 30 mM CaCl2 at pH 7.4 to form an anti-(390-404)-APC immunoreaction admixture pre-maintenance solution. […]

| IC50 [µM] | IC90 [µM] | Substance |
| --- | --- | --- |
| 500 | – | VLNFIKIPVVPHNEC-NH2 [peptide-(317-331), VLNFIKIPVVPHNEC] |
| 70 | 300 | VSRYLDWIHGHIRDK-NH2 [peptide-(396-410), VSRYLDWIHGHIRDK] |
